Experimental data as given in US20250034207A1, “PEPTIDES AND PEPTIDE CONJUGATES FOR TREATING MENTAL DISORDERS” (Kyoto University, priority 2016, published 2025).
No end group written: not given here.

Test system: ddY mice
Experiment: Tail suspension test in mice after oral administration
Assay type: in vivo
Conditions: for Activity Rating: rating excellent, good, moderate or low from percent reduction of control immobility, 0.3 mg/kg; for % of SEQ ID NO: 1 activity: reduction of control immobility relative to SEQ ID NO:1, 0.3 mg/kg oral, average where tested more than once; for Immobility time for peptides dosed at 0.3 mg/kg as percent of control immobility time, Example 16: Example 16 (retest)
Method: The tail suspension test is an experimental method used to screen potential antidepressant drugs (Can et al., 2012, J Vis Exp., 59: e3769). In the test as implemented in the Examples, a test substance is orally administered to mice (ddY mice, males, 24˜30 g) and 30 minutes later the mice are suspended by their tails for six minutes. The amount of time that a mouse is immobile (i.e. is not displaying escape behavior) during the six minutes is measured to provide an immobility time. The administration of anti-depressant drugs such as imipramine reduces immobility time. Therefore, if a reduction of immobility time is observed when testing a test substance, it can be concluded that the test substance has anti-depressant properties. Immobility is considered a despair state, and, therefore, a reduction of immobility time also indicates an increase in motivation (i.e., that the test substance has motivation-increasing properties).

## LSSTQAQQSYLQGF (Designed peptide) [SEQ ID NO:43]
0.3 mg/kg oral
  Immobility time for peptides dosed at 0.3 mg/kg as percent of control immobility time, Example 15: 109.70% of control immobility time
  Activity Rating: Low
  % of SEQ ID NO: 1 activity: −19.33%

## WLSSTQAQQSYW (Designed peptide) [SEQ ID NO:39]
0.3 mg/kg oral
  Immobility time for peptides dosed at 0.3 mg/kg as percent of control immobility time, Example 14: 90.94% of control immobility time
  Activity Rating: Moderate
  % of SEQ ID NO: 1 activity: 18.05%

## LSSTQ (Designed peptide) [SEQ ID NO:4]
0.3 mg/kg oral
  Immobility time for peptides dosed at 0.3 mg/kg as percent of control immobility time, Example 3 (FIG. 3B): 81.53% of control immobility time
  Activity Rating: Good
  % of SEQ ID NO: 1 activity: 36.80%

## LSSTQAQQSW (Designed peptide) [SEQ ID NO:6]
0.3 mg/kg oral
  Immobility time for peptides dosed at 0.3 mg/kg as percent of control immobility time, Example 6: 38.41% of control immobility time
  Activity Rating: Excellent
  % of SEQ ID NO: 1 activity: 122.71%

## AQQSY (Designed peptide) [SEQ ID NO:5]
0.3 mg/kg oral
  Immobility time for peptides dosed at 0.3 mg/kg as percent of control immobility time, Example 3 (FIG. 3B): 86.87% of control immobility time
  Activity Rating: Moderate
  % of SEQ ID NO: 1 activity: 26.16%

## ESFFLSSTQAQQSY (Designed peptide) [SEQ ID NO:42]
0.3 mg/kg oral
  Immobility time for peptides dosed at 0.3 mg/kg as percent of control immobility time, Example 15: 119.64% of control immobility time
  Activity Rating: Low
  % of SEQ ID NO: 1 activity: −39.13%

## WLSSTQAQQSY (Designed peptide) [SEQ ID NO:38]
0.3 mg/kg oral
  Immobility time for peptides dosed at 0.3 mg/kg as percent of control immobility time, Example 14: 72.27% of control immobility time
  Activity Rating: Good
  % of SEQ ID NO: 1 activity: 55.25%

## AQQSYW (Designed peptide) [SEQ ID NO:41]
0.3 mg/kg oral
  Immobility time for peptides dosed at 0.3 mg/kg as percent of control immobility time, Example 14: 97.33% of control immobility time
  Activity Rating: Low
  % of SEQ ID NO: 1 activity: 5.32%

## WLSSTQ (Designed peptide) [SEQ ID NO:40]
0.3 mg/kg oral
  Immobility time for peptides dosed at 0.3 mg/kg as percent of control immobility time, Example 14: 55.34% of control immobility time
  Immobility time for peptides dosed at 0.3 mg/kg as percent of control immobility time, Example 16: 88.09% of control immobility time
  Activity Rating: Good
  % of SEQ ID NO: 1 activity: 56.36%

## LSSTQAQQSYW (Designed peptide) [SEQ ID NO:37]
0.3 mg/kg oral
  Immobility time for peptides dosed at 0.3 mg/kg as percent of control immobility time, Example 14: 39.08% of control immobility time
  Immobility time for peptides dosed at 0.3 mg/kg as percent of control immobility time, Example 16: 58.54% of control immobility time
  Activity Rating: Excellent
  % of SEQ ID NO: 1 activity: 97.25%

## LSSTQAQQ (Designed peptide) [SEQ ID NO:27]
0.3 mg/kg oral
  Immobility time for peptides dosed at 0.3 mg/kg as percent of control immobility time, Example 13: 76.65% of control immobility time
  Activity Rating: Good
  % of SEQ ID NO: 1 activity: 46.52%

## LSSTQAQQSY (Designed peptide) [SEQ ID NO:1]
0.3 mg/kg oral, Example 1
  Immobility time for peptides dosed at 0.3 mg/kg as percent of control immobility time, Example 1: 44.13% of control immobility time
0.3 mg/kg oral
  Immobility time for peptides dosed at 0.3 mg/kg as percent of control immobility time, Example 3 (FIG. 3A): 42.41% of control immobility time
  Immobility time for peptides dosed at 0.3 mg/kg as percent of control immobility time, Example 3 (FIG. 3B): 64.04% of control immobility time
  Activity Rating: Excellent
  % of SEQ ID NO: 1 activity: 100%

## FFLSSTQAQQSYLQ (Designed peptide) [SEQ ID NO:44]
0.3 mg/kg oral
  Immobility time for peptides dosed at 0.3 mg/kg as percent of control immobility time, Example 15: 82.98% of control immobility time
0.3 mg/kg oral, Example 15 (FIG. 11)
  Immobility time compared to control: decreased
  Activity Rating: Good
  % of SEQ ID NO: 1 activity: 33.91%

## LSSTQAQQSF (Designed peptide) [SEQ ID NO:7]
0.3 mg/kg oral
  Immobility time for peptides dosed at 0.3 mg/kg as percent of control immobility time, Example 6: 42.05% of control immobility time
  Activity Rating: Excellent
  % of SEQ ID NO: 1 activity: 115.46%

## STQAQQSY (Designed peptide) [SEQ ID NO:29]
0.3 mg/kg oral
  Immobility time for peptides dosed at 0.3 mg/kg as percent of control immobility time, Example 13: 74.44% of control immobility time
  Activity Rating: Good
  % of SEQ ID NO: 1 activity: 50.93%

## LSSTQAQQSY-NH2 [SEQ ID NO:36, C-terminal amidated peptide conjugate]
0.3 mg/kg oral
  Immobility time for peptides dosed at 0.3 mg/kg as percent of control immobility time, Example 6: 55.27% of control immobility time
  Activity Rating: Excellent
  % of SEQ ID NO: 1 activity: 89.12%

## SSTQAQQSY (Designed peptide) [SEQ ID NO:3]
0.3 mg/kg oral
  Immobility time for peptides dosed at 0.3 mg/kg as percent of control immobility time, Example 3 (FIG. 3A): 67.47% of control immobility time
  Activity Rating: Excellent
  % of SEQ ID NO: 1 activity: 64.81%

## SSTQAQQS (Designed peptide) [SEQ ID NO:28]
0.3 mg/kg oral
  Immobility time for peptides dosed at 0.3 mg/kg as percent of control immobility time, Example 13: 60.34% of control immobility time
  Immobility time for peptides dosed at 0.3 mg/kg as percent of control immobility time, Example 16: 57.29% of control immobility time
  Activity Rating: Excellent
  % of SEQ ID NO: 1 activity: 82.07%

## LSSTQAQQS (Designed peptide) [SEQ ID NO:2]
0.3 mg/kg oral
  Immobility time for peptides dosed at 0.3 mg/kg as percent of control immobility time, Example 3 (FIG. 3A): 87.31% of control immobility time
  Activity Rating: Moderate
  % of SEQ ID NO: 1 activity: 25.28%
